Results: patent US6127375A, “4,4-disubstituted-3,4-dihydro-2(1H)-quinazolinthiones useful as HIV reverse transcriptase inhibitors” (Dupont Pharmaceuticals Company, priority 1999, dated 2000)
Values after ≈ are worked out from the molar mass of the structure shown.

System: HIV-1 (RF)
Test: HIV RNA Assay: Microplate Based Compound Evaluation in HIV-1 Infected MT-2 Cells
Format: cell-based
Details: Human immunodeficiency virus 1, MT2, 72 h; HIV-1 (RF) in MT-2 cells, 3 days at 37° C.; value to which virus inoculum was standardized (~3×10^5 PFU per assay well); read-out: IC90 value (concentration of compound required to reduce the HIV RNA level by 90%)
Experimental: Plasmid pDAB 72 containing both gag and pol sequences of BH10 (bp 113-1816) cloned into PTZ 19R was prepared according to Erickson-Viitanen et al. AIDS Research and Human Retroviruses 1989, 5, 577. The plasmid was linearized with Bam HI prior to the generation of in vitro RNA transcripts using the Riboprobe Gemini system II kit (Promega) with T7 RNA polymerase. Synthesized RNA was purified by treatment with RNase free DNAse (Promega), phenol-chloroform extraction, and ethanol precipitation. RNA transcripts were dissolved in water, and stored at -70° C. The concentration of RNA was determined from the A260.
Biotinylated capture probes were purified by HPLC after synthesis on an Applied Biosystems (Foster City, Calif.) DNA synthesizer by addition of biotin to the 5' terminal end of the oligonucleotide, using the biotin-phosphoramidite reagent of Cocuzza, Tet. Lett. 1989, 30, 6287. […]
MT-2 and MT-4 cells were maintained in RPMI 1640 supplemented with 5% fetal calf serum (FCS) for MT-2 cells or 10% FCS for MT-4 cells, 2 mM L-glutamine and 50 μg/mL gentamycin, all from Gibco. […] Infectious titers of HIV-1(RF) stocks were 1-3×10^7 PFU (plaque forming units)/mL as measured by plaque assay on MT-2 cells (see below). […]

Nc1ccn([C@H]2CC[C@@H](CO)O2)c(=O)n1 [ddC, 2',3'-dideoxycytidine]
IC90: 0.2 µg/mL (≈ 0.947 µM)
